# Key:
# Assay type in all cases: in vivo, human
# [1] = system: subjects with fibromyalgia; assay: Fibromyalgia Survey Questionnaire (Widespread Pain Index, Symptom Severity Score)
# Source text: As used herein, “FSQ” is Fibromyalgia Survey Questionnaire, which is a patient-reported tool to assess the 2011 ACR Fibromyalgia criteria circumventing the requirement of physician assessment. The criteria review the widespread pain index, and somatic symptoms. The somatic symptoms of fatigue, waking unrefreshed, and cognitive symptoms were scored from 0 (no problem) to 3 (severe, pervasive, continuous, life disturbing problems). Symptoms of headaches, pain or cramps in the lower abdomen, and depression were given a score of 1, if they had occurred in the past 3 months.
# As used herein, “WPI” is the Widespread Pain Index, which is a score comprised of 19 areas where subjects experienced pain within the last week with a yes or no response for each area. Each individual yes response has a numeric value of 1 and 0 is assigned to each no response. The WPI score had values ranging from 0 to 19. If any of the individual area responses were missing, the WPI score was not calculated. Here are the 19 areas that were assessed: Left Jaw, Right Jaw, Left Shoulder, Right Shoulder, Right Upper Arm, Left Upper Arm, Right Lower Arm, Left Lower Arm, Neck, Upper Back, Chest, Abdomen, Lower Back, Right Hip, Left Hip, Right Upper Leg, Left Upper Leg, Right Lower Leg, and Left Lower Leg.
# As used herein, “SS” is the Symptom Severity Score, based on 3 questions each having a numeric score ranging from 0 to 3 and an additional 3 questions each having a numeric score of 0 or 1. If all 6 questions were given a numeric score, then the Symptom Severity Score ranged from 0 to 12. If any of the individual scores were missing, the Symptom Severity Score was not calculated.
# As used herein, “ACR Fibromyalgia Criteria” is 2011 American College of Rheumatology Fibromyalgia Criteria, and includes FSQ, WPI, and SS. These assessments were analyzed at Day 1, Week 2, Week 4, Week 6, and Follow-up (Week 7). Both the observed Widespread Pain Index score and Symptom Severity Score, changes from baseline, and changes from treatment periods were summarized using descriptive statistics. Additionally, the treatment group comparisons were analyzed using the paired t-test and nonparametric Wilcoxon signed-rank test. A frequency distribution table was presented for yes/no responses for these categories: • Widespread Pain Index ≥7 and Symptom Severity Score >5 • Widespread Pain Index is 3 to 6 and the Symptom Severity Score is >9
# [2] = system: subjects with fibromyalgia; assay: Patient Global Impression of Change (PGI-C)
# Source text: As used herein, the “PGI-C” is Patient Global Impression of Change. The PGI-C is a 7-point Likert scale that allows subjects to rate the change in the disease state from study initiation to specific time points during the study or at the end of the study. It provides the subject's impression of overall change.
# The PGI-C data were collected and analyzed at visits Week 2, Week 4, Week 6, and Follow-up (Week 7). […] The actual values and changes from treatment periods at Week 4 and Week 6 were summarized using descriptive statistics. A frequency distribution was created for each analysis visit based on the collected categorical values. The analysis categorical values stated above were summarized by frequency distributions and p-values using McNemar's test.
# [3] = system: visual stimulus-evoked brain activation; assay: fMRI of visual stimulation, BOLD activations; details: either dose relative to baseline or placebo
# Source text: As used herein, “Functional Magnetic Resonance Imaging of Evoked Pain and Visual Stimulation” refers to the following procedure. During evoked pain and visual stimulation fMRI paradigms, participants were lying in the scanner as they received either pressure stimulation to their calf muscle or they experienced an unpleasant visual stimulus. For both pain and visual stimulation, whole-brain Blood Oxygenation Level Dependent (BOLD) functional images were acquired.
# Neural mechanisms of this multimodal hypersensitivity were assessed using fMRI. Whole brain BOLD functional images were acquired. The visual stimulation task was 3 minutes in duration and consisted of 2 different visual stimuli presented in a block design. The control stimulus was a fixed crosshair centered in the middle of a solid color background, whereas the experimental stimulus was a flashing annulus checkerboard (8 Hz frequency) (see below figure of example of visual stimuli). […]
# Several analyses were conducted with the fMRI resting state and task data. Results were assessed by: 1) a primary analysis, where a finding was deemed significant with a corrected cluster level p<0.05, derived from an uncorrected voxel-wise p<0.001, and 2) an exploratory analysis, where a finding was deemed significant with an uncorrected voxel-wise p<0.005 and having a cluster greater than or equal to 80 contiguous voxels. […]
# [4] = Week 2 (placebo) to Week 4 (NYX-2925 20 mg), not statistically significant
structure (smiles),measurement,setting,value
"CC(C)C(=O)N1CCC[C@]12CN([C@H](C(N)=O)[C@@H](C)O)C2=O [NYX-2925, (2S, 3R)-3-hydroxy-2-((R)-5-isobutyryl-1-oxo-2,5-diazaspiro[3.4]octan-2-yl)butanamide]","Symptom Severity score, mean change",[1]; [4],−0.3
same,"Widespread Pain Index, mean change",[1]; [4],0.0
same,"Widespread Pain Index, mean change","[1]; Week 2 (placebo) to Week 6 (NYX-2925 200 mg), not statistically significant",−1.3
same,"Symptom Severity score, mean change","[1]; Week 2 (placebo) to Week 6 (NYX-2925 200 mg), statistically significant",−0.9
same,Patient Global Impression of Change,"[2]; post hoc, improved including minimally improved, 20 mg and 200 mg versus placebo",a larger proportion of subjects had a reduction of severity
same,Patient Global Impression of Change,"[2]; traditional definition of improved (very much improved, much improved)","little, if any, change in severity"
same,"BOLD activation, visual task",[3],No significant or marginal changes in BOLD activation

# Source: patent publication US20210308101A1, “METHODS OF TREATING FIBROMYALGIA” (Aptinyx Inc., priority 2019, published 2021)
